Laboratory results: US6017957A (priority 1989, dated 2000)
Read-outs that look alike come from different tables or passages of the source.

Experiments:
NMDA-induced convulsions = NMDA-induced convulsions and death (anticonvulsant activity); assay type: in vivo, male NIH-Swiss mice; conditions: for ED50: Mus musculus, ip, read-out: ED50, protection against NMDA-induced convulsions and death; for dose-response curve shape: NMDA-induced convulsions; for fold more potent than parent compound (ACPC): anticonvulsant potency in vivo
Description: (§1) Male (25-30 g) NIH-Swiss mice (Harlan Sprague-Dawley, Frederick, Md.) were group housed in 32 cm×25 cm×15 cm plastic cages (10-15/cage) with food and water freely available. Mice were injected intraperitoneally with the test substance and challenged fifteen minutes later (unless otherwise specified) with NMDA (125 mg/kg), pentylenetetrazole (PTZ) (80mg/kg), strychnine (strych.) hemisulfate (2 mg/kg, as the base), bicuculline (bicuc.) (6 mg/kg) or maximal electroshock (MES). NMDA, PTZ, and strych. hemisulfate were dissolved in distilled water. Bicuculline was dissolved in 0.01 N HC1. These compounds were injected in a volume of 0.1 ml 1-aminocyclopropanecarboxylates were dissolved in distilled water and doses ≤500 mg/kg injected in a volume of 0.1 ml; doses >500 mg/kg were injected in proportionately larger volumes. Immediately after convulsant challenge, mice were placed in 28.5 cm×17.8 cm×12 cm plastic cages (1/cage) and observed for 15 minutes. The presence or absence of convulsions and the time to the first convulsive episode (latency) were noted. MES were produced by applying a 50 mA current through alligator clips attached to the pinnae for 0.2 s.

[1] = system: pentylenetetrazole (PTZ)-induced convulsions; assay: PTZ-induced convulsions; assay type: in vivo, male NIH-Swiss mice
Description: as §1

[2] = system: bicuculline-induced convulsions; assay type: in vivo, male NIH-Swiss mice
Description: as §1

[3] = system: strychnine-induced convulsions; assay type: in vivo, male NIH-Swiss mice
Description: as §1

[4] = system: maximal electroshock seizures; assay: Maximal electroshock seizures (MES); assay type: in vivo, male NIH-Swiss mice; conditions: for effect on MES: ACPC 200-2000, ACPCM 114-571 mg/kg
Description: as §1

[5] = system: motor performance (rotarod); assay: Motor performance, rotarod; assay type: in vivo, NIH-Swiss mice; conditions: for impairment of performance in rotarod test: ACPC 100-2000, ACPCM 19-571 mg/kg, MK-801 1 mg/kg, thirty minutes; for % Impairment, Rotarod: i.p., ACPC 400-2000, ACPCM 114-571, MK-801 1 mg/kg
Source text: (§2) Evaluation of motor performance:

[6] = system: motor performance (horizontal wire); assay: Motor performance, horizontal (hanging) wire test; assay type: in vivo, NIH-Swiss mice; conditions: for impairment of performance in hanging (horizontal) wire test: ACPC 100-2000, ACPCM 19-571 mg/kg, MK-801 1 mg/kg, thirty minutes; for % Impairment, Hanging Wire: i.p., ACPC 400-2000, ACPCM 114-571, MK-801 1 mg/kg
Source text: as §2

[7] = molecular target: T1, strychnine-insensitive glycine receptors (NMDA receptor complex) (Rattus norvegicus, UniProt P35439); conditions: cited from earlier work
T1 construct: Synaptic membranes were prepared from forebrains of adult; from tissue; host or cells: forebrain (whole brain minus cerebellum and brainstem) synaptic membranes of adult male Sprague-Dawley rats

NMDA receptor complex = conditions: compared with glycine; Marvizon et al, 1989; cited from earlier work
[8] = system: NMDA-gated cation channels; conditions: Nadler et al, 1988; cited from earlier work
[9] = system: strychnine insensitive glycine binding site of the N-methyl-D-aspartate (NMDA) receptor complex; conditions: Marvizon, 1989; cited from earlier work
Overt behavioral effects = conditions: for overt behavioral effects: ACPC 100-2000, ACPCE 39-195, ACPCM 19-571 mg/kg
[10] = molecular target: T1, strychnine-insensitive glycine receptors (NMDA receptor complex); assay: Inhibition of [^3 H]glycine binding; assay type: male Sprague-Dawley rats (forebrain synaptic membranes); conditions: rat forebrain synaptic membranes, 0-4°, 60 min
Description: Membrane preparation: Synaptic membranes were prepared from forebrains of adult (250-350 g) male Sprague-Dawley rats (Taconic Farms, Germantown, N.Y.) by modification of the method of Bristow et al, (1986). In brief, forebrains (whole brain minus cerebellum and brainstem) were weighed and then disrupted for 30 s (Ultra-Turrax, Model STD) in 10 volumes of 0.32 M sucrose containing 5 mM HEPES/4.5 mM Tris pH 7.4. The homogenate was diluted to 50 volumes with this buffer and centrifuged for 10 minutes (1000×g). […]
[^3 H]Glycine binding: Immediately prior to assay, aliquots were thawed at 0-40 and "washed" 3 more times as described above. Membranes (0.1-0.3 mg prot.) were incubated for 60 minutes at 0-4° in HEPES-Tris buffer containing 1 mM MgCl2, ([^3 H]glycine (20 Ci/mmol, ISN, Irvine, Calif.), and drugs as indicated. Nonspecific binding was defined using 1 mM glycine. Incubations (1 ml) were terminated by centrifugation (Eppendorf Model 5414 Microfuge, 5 minutes) and the pellets washed superficially with 1 ml of assay buffer. The pellets were solubilized with 0.5 ml of NCS (Amersham, Arlington Heights, Ill.), agitated for 45 minutes, and 0.05 ml of glacial acetic acid added. Four ml of OCS (Amersham) was added and the radioactivity measured in a Beckman LS 5801 liquid scintillation counter.

[11] = system: pentylenetetrazole (PTZ)-induced convulsions; conditions: MK-801; Clineschmidt et al, 1982a; cited from earlier work
[12] = system: strychnine-induced convulsions; conditions: MK-801; Clineschmidt et al, 1982a; cited from earlier work
[13] = system: bicuculline-induced convulsions; conditions: MK-801; Clineschmidt et al, 1982a; cited from earlier work
[14] = system: [^3 H]glycine binding (NMDA receptor complex); conditions: MK-801 10 μM; Marvizon and Skolnick, 1988; cited from earlier work
[15] = i.p., 15 min before NMDA 125 mg/kg, ACPC 100-500, ACPCE 39-195, ACPCM 19-190 mg/kg
[16] = ACPC 200-2000, ACPCM 114-571 mg/kg i.p.
[17] = NMDA 125 mg/kg, vehicle injected mice

Structure (SMILES): NC1(C(=O)O)CC1 [ACPC, 1-aminocyclopropanecarboxylic acid]
- anticonvulsant effect still manifest after (duration) (NMDA-induced convulsions; ACPC 400 mg/kg): 30 min
- maximum protection against NMDA-induced convulsions (NMDA-induced convulsions; ACPC 400 mg/kg): 85%
- protection against NMDA-induced convulsions and death (efficacy, time) (NMDA-induced convulsions; ACPC 400 mg/kg, 15 minutes prior to NMDA): most efficacious
- ED50 (NMDA-induced convulsions): 234 mg/kg
- dose-response curve shape (NMDA-induced convulsions): "bell-shaped" dose-response curve
- Complete protection against NMDA-induced convulsions (NMDA-induced convulsions; i.p.): inability of ACPC to completely block NMDA-induced convulsions
- Effect on convulsions induced by NMDA (125) (NMDA-induced convulsions; [15]): +
- latency to convulsions induced by PTZ ([1]; ACPC 400 mg/kg): not significantly altered
- protection against PTZ-induced convulsions ([1]; ACPC 400 mg/kg): did not afford significant protection
- Effect on convulsions induced by PTZ (80) ([1]; ACPC 400 mg/kg i.p., PTZ 80 mg/kg): -
- latency to convulsions induced by bicuc. ([2]; ACPC 400 mg/kg): not significantly altered
- protection against bicuc.-induced convulsions ([2]; ACPC 400 mg/kg): did not afford significant protection
- Effect on convulsions induced by BICUC. (6) ([2]; ACPC 400 mg/kg i.p., bicuculline 6 mg/kg): -
- latency to convulsions induced by strych. ([3]; ACPC 400 mg/kg): not significantly altered
- protection against strych.-induced convulsions ([3]; ACPC 400 mg/kg): did not afford significant protection
- Effect on convulsions induced by STRYCH. (2) ([3]; ACPC 400 mg/kg i.p., strychnine 2 mg/kg): -
- effect on MES [4]: Neither ACPC (200-2000 mg/kg) nor ACPCM (114-571 mg/kg) had a significant, dose-dependent effect
- Effect on convulsions induced by MES [4, 16]: -
- impairment of performance in rotarod test [5]: no impairment
- % Impairment, Rotarod [5]: 0%
- impairment of performance in hanging (horizontal) wire test [6]: no impairment
- % Impairment, Hanging Wire [6]: 0%
- IC50 ([7]; ACPC, Marvizon et al, 1989, read-out: Inhibition of [^3 H] glycine binding IC50): 38 ± 7 nM
- inhibition of strychnine-insensitive [^3 H]glycine binding (type) ([7]; Marvizon et al, 1989): potent, competitive inhibitor
- Ki ([7]; Marvizon et al, 1989, read-out: affinity K1 for strychnine-insensitive glycine receptors in vitro): 32 nM
- enhancement of [3H]MK-801 binding (NMDA receptor complex): enhances [3H]MK-801 binding to this supramolecular complex with a lower efficacy than glycine
- enhancement of [^3 H]TCP binding [8]: enhances [^3 H]TCP binding
- partial agonism at strychnine insensitive glycine binding site [9]: potent and selective partial agonist
- overt behavioral effects (Overt behavioral effects): No overt behavioral effects
- overt behavioral effects or neurotoxicity (Overt behavioral effects; mouse, in vivo): lack of overt behavioral effects or neuro-toxicity
- therapeutic index versus competitive or non-competitive NMDA receptor antagonists (Overt behavioral effects; mouse, in vivo): greater therapeutic index

Structure (SMILES): C1CCc2nnnn2CC1 [pentylenetetrazole, reference compound]
- convulsions, % of mice ([1]; PTZ 80 mg/kg): 100%
- latency to convulsions ([1]; PTZ 80 mg/kg): 1.4 ± 0.2 min

Structure (SMILES): CN1CCc2cc3c(cc2[C@H]1[C@@H]1OC(=O)c2c1ccc1c2OCO1)OCO3 [bicuculline, reference compound]
- convulsions, % of mice ([2]; bicuculline 6 mg/kg): 100%
- latency to convulsions ([2]; bicuculline 6 mg/kg): 2.1 ± 0.3 min

Structure (SMILES): CCOC(=O)C1(N)CC1 [ACPCE, ethyl l-aminocyclopropanecarboxylate]
- ED50 (NMDA-induced convulsions): 100 mg/kg
- dose-response curve shape (NMDA-induced convulsions): "bell-shaped" dose response curve
- fold more potent than parent compound (ACPC) (NMDA-induced convulsions): ~ 2.3 fold
- Complete protection against NMDA-induced convulsions (NMDA-induced convulsions; i.p.): neither ester could completely block NMDA-induced convulsions and deaths
- Effect on convulsions induced by NMDA (125) (NMDA-induced convulsions; [15]): +
- IC50 [10]: > 40000 nM
- overt behavioral effects (Overt behavioral effects): No overt behavioral effects
- overt behavioral effects or neurotoxicity (Overt behavioral effects; mouse, in vivo): no overt behavioral effects or neurotoxicity were observed

Structure (SMILES): O=C1C[C@@H]2OCC=C3CN4CC[C@]56c7ccccc7N1[C@H]5[C@H]2[C@H]3C[C@H]46 [strychnine, reference compound]
- convulsions, % of mice ([3]; strychnine 2 mg/kg): 100%
- latency to convulsions ([3]; strychnine 2 mg/kg): 3.1 ± 0.4 min

Structure (SMILES): COC(=O)C1(N)CC1 [ACPCM, methyl 1-aminocyclopropanecarboxylate]
- maximum efficacy apparent after injection (time) (NMDA-induced convulsions; ACPCM 114 mg/kg): 5 to 15 min
- onset and duration of anticonvulsant action relative to ACPC (NMDA-induced convulsions; ACPCM 114 mg/kg): manifest more rapidly than ACPC but of shorter duration
- ED50 (NMDA-induced convulsions): 46 mg/kg
- dose-response curve shape (NMDA-induced convulsions): "bell-shaped" dose response curve
- fold more potent than parent compound (ACPC) (NMDA-induced convulsions): ~ 5 fold
- Complete protection against NMDA-induced convulsions (NMDA-induced convulsions; i.p.): neither ester could completely block NMDA-induced convulsions and deaths
- Effect on convulsions induced by NMDA (125) (NMDA-induced convulsions; [15]): +
- effect on MES [4]: Neither ACPC (200-2000 mg/kg) nor ACPCM (114-571 mg/kg) had a significant, dose-dependent effect
- Effect on convulsions induced by MES [4, 16]: -
- impairment of performance in rotarod test [5]: no impairment
- % Impairment, Rotarod [5]: 0%
- impairment of performance in hanging (horizontal) wire test [6]: no impairment
- % Impairment, Hanging Wire [6]: 0%
- IC50 [10]: > 40000 nM
- overt behavioral effects (Overt behavioral effects): No overt behavioral effects
- overt behavioral effects or neurotoxicity (Overt behavioral effects; mouse, in vivo): no overt behavioral effects or neurotoxicity were observed

Structure (SMILES): CN[C@H](CC(=O)O)C(=O)O [NMDA, N-methyl-D-aspartate, reference compound]
- convulsions and death, mice affected (NMDA-induced convulsions; [17]): all
- latency to convulsions (NMDA-induced convulsions; [17]): 4.6 ± 0.4 min

Structure (SMILES): C[C@]12N[C@H](Cc3ccccc31)c1ccccc12 [MK-801, (+)-5-Methyl-10,11-dihydro-5H-dibenzo [a,d]cyclo-hepten-5,10-imine, reference compound]
- Effect on convulsions induced by NMDA (125) (NMDA-induced convulsions; MK-801 1 mg/kg i.p., positive control, superscript 3): +
- protection against NMDA-induced lethality (NMDA-induced convulsions; MK-801 1 mg/kg, thirty minutes following administration): complete protection
- Effect on convulsions induced by MES ([4]; MK-801 1 mg/kg i.p., superscripts 1,3): +
- abolished hindclimb tonic extensor component of MES, % of mice ([4]; MK-801 1 mg/kg, thirty minutes before MES): 87%
- impairment of performance in rotarod test [5]: complete impairment
- % Impairment, Rotarod [5]: 100%
- impairment of performance in hanging (horizontal) wire test [6]: complete impairment
- % Impairment, Hanging Wire [6]: 100%
- Effect on convulsions induced by PTZ (80) [11]: +
- Effect on convulsions induced by STRYCH. (2) [12]: -
- Effect on convulsions induced by BICUC. (6) [13]: +
- Inhibition of [^3 H] glycine binding, mode ([7]; MK-801, Marvizon and Skolnick, 1988): noncom-
- inhibition of activation of [^3 H]glycine binding by Mg^+2 [14]: non-competitively inhibits
- hyperactivity (Overt behavioral effects; MK-801 1 mg/kg, thirty minutes after administration): profound hyperactivity
